Data as given in patent US10947213B1 (Merck Patent GmbH, priority 2015, dated 2021).
Structures can show the parent of a compound that is named as a salt.

Biological target: T1, TLR7/NFKb HEK cells (Homo sapiens, UniProt Q9NYK1)
T1 construct: expressed in transfected cells; host or cells: HEK cells (TLR7/NFKb reporter line)
T1 sequence (Q9NYK1 27-1049): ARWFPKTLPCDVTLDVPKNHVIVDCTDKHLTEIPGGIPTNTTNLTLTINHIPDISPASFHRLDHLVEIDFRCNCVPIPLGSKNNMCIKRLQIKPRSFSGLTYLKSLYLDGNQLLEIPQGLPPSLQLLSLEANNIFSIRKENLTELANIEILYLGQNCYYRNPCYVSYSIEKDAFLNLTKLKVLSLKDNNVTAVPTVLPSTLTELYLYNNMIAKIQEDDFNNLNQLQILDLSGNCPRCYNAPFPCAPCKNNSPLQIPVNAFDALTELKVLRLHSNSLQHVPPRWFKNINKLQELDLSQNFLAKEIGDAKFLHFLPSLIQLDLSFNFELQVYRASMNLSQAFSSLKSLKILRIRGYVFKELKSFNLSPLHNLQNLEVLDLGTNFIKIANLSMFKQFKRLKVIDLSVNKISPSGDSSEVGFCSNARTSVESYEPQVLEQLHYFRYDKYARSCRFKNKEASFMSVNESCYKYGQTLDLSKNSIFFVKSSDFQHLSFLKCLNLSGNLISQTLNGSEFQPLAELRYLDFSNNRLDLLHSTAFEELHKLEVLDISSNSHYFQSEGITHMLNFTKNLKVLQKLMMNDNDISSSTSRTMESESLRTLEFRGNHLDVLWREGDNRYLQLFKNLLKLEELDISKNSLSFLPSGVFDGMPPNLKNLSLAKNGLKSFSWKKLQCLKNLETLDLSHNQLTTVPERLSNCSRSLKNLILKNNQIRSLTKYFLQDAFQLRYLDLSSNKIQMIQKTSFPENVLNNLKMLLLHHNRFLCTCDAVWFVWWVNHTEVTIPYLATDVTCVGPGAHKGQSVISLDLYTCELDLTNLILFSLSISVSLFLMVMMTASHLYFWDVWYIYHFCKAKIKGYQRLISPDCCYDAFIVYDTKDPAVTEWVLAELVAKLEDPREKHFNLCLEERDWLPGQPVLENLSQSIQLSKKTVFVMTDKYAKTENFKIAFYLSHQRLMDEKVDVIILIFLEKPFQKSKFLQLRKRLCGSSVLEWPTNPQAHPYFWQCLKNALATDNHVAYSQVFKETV
Experiment: HEK Cell Assay (TLR7/NFKb reporter, Steady-Glo luciferase readout)
Assay type: cell-based
Settings: 30 min compound preincubation, then R*48 agonist for 5 hours, read-out: Potency
Outline: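 Steady-Glo luminescence after 5 h stimulation with R*48 agonist, following 30 min compound preincubation. Assay run in HEK cells carrying a TLR7/NFKb luciferase reporter, plated at 5000 cells/well and grown 24 h at 37° C (10% CO2) before treatment.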

Row | IC50 [nM] | Compound
1 | 1000 to 10000 | O=C(CN1CCC1)NCC1CCN(c2ccnc3nccnc23)CC1 [Compound 402, 2-Azetidin-1-yl-N-(1-pyrido[2,3-b]pyrazin-8-yl-piperidin-4-ylmethyl)-acetamide]
2 | 1000 to 10000 | C[C@H]1C[C@@H](NC(=O)CN2CC(N)C2)CN(c2ccc(C(F)F)c3nccnc23)C1 [Compound 365, 2-(3-aminoazetidin-1-yl)-N-[(3R,5S)-1-[8-(difluoromethyl)quinoxalin-5-yl]-5-methylpiperidin-3-yl]acetamide]
3 | < 1000 | C[C@H]1C[C@@H](NC(=O)CN2CCN(C)CC2)CN(c2ccc(C(F)(F)F)c3ncccc23)C1 [Compound 243, N-[(3R,5S)-5-methyl-1-[8-(trifluoromethyl)quinolin-5-yl]piperidin-3-yl]-2-(4-methylpiperazin-1-yl)acetamide]
4 | 1000 to 10000 | Cc1cc(N2CCC(CNCCN3CCCCC3)CC2)c2cc(F)ccc2n1 [Compound 381, [1-(6-Fluoro-2-methyl-quinolin-4-yl)-piperidin-4-ylmethyl]-(2-piperidin-1-yl-ethyl)-amine]
5 | < 1000 | N#Cc1ccc(N2C[C@H](NC(=O)C3CCN(C4CC4)CC3)C[C@H](C(F)(F)F)C2)c2cccnc12 [Compound 578, 1-Cyclopropyl-piperidine-4-carboxylic acid [(3R,5S)-1-(8-cyano-quinolin-5-yl)-5-trifluoromethyl-piperidin-3-yl]-amide]
6 | < 1000 | C[C@H]1C[C@@H](NC(=O)CC(C)(C)CN)CN(c2ccc(C(F)F)c3ncccc23)C1 [Compound 315, 4-amino-N-[(3R,5S)-1-[8-(difluoromethyl)quinolin-5-yl]-5-methylpiperidin-3-yl]-3,3-dimethylbutanamide]
7 | < 1000 | C[C@H]1C[C@@H](NC(=O)CC2CCCN(C)C2)CN(c2ccc(C(F)F)c3ncccc23)C1 (stereo partly drawn) [Compound 303, N-[(3R,5S)-1-[8-(difluoromethyl)quinolin-5-yl]-5-methylpiperidin-3-yl]-2-(1-methylpiperidin-3-yl)acetamide]
8 | < 1000 | CNC(=O)CN[C@@H]1C[C@H](C)CN(c2ccc(C(F)(F)F)c3ncccc23)C1 [Compound 569]
9 | 1000 to 10000 | CNC(=O)CCC(=O)N[C@@H]1C[C@H](C)CN(c2cnc(C)c3ncccc23)C1 [Compound 565, N-Methyl-N′-[(3R,5S)-5-methyl-1-(8-methyl-[1,7]naphthyridin-5-yl)-piperidin-3-yl]-succinamide]
10 | < 1000 | N#Cc1ccc(N2CCC(C(=O)NC3CCN(CC4CC4)C3)CC2)c2cccnc12 (centres unmarked) [Compound 434, 1-(8-Cyano-quinolin-5-yl)-piperidine-4-carboxylic Acid (1-cyclopropylmethyl-pyrrolidin-3-yl)-amide]
11 | < 1000 | C[C@H]1C[C@@H](NC(=O)CO)CN(c2ccc(C(F)(F)F)c3nccnc23)C1 [Compound 250, 2-hydroxy-N-[(3R,5S)-5-methyl-1-[8-(trifluoromethyl)quinoxalin-5-yl]piperidin-3-yl]acetamide]
12 | 1000 to 10000 | CC1CC(CN2CCN(C)CC2)CN(c2ccc(C(F)(F)F)c3ncccc23)C1 (single isomer, unassigned) [Compound 534, trans-5-[3-Methyl-5-(4-methyl-piperazin-1-ylmethyl)-piperidin-1-yl]-8-trifluoromethyl-quinoline]
13 | < 1000 | C[C@H]1C[C@@H](NC(=O)C(C)(C)N2CCCCC2)CN(c2ccc(C(F)(F)F)c3ncccc23)C1 [Compound 572]
14 | < 1000 | C[C@H]1C[C@@H](NC(=O)C2(O)CC2)CN(c2ccc(C#N)c3nccnc23)C1 [Compound 230, N-[(3R,5S)-1-(8-cyanoquinoxalin-5-yl)-5-methylpiperidin-3-yl]-1-hydroxycyclopropane-1-carboxamide]
15 | < 1000 | C[C@H]1C[C@@H](NC(C)(C)CO)CN(c2ccc(C#N)c3nccnc23)C1 [Compound 231, 8-[(3R,5S)-3-[(1-hydroxy-2-methylpropan-2-yl)amino]-5-methylpiperidin-1-yl]quinoxaline-5-carbonitrile]
16 | 1000 to 10000 | CN1CCC(NC2CC(C(F)(F)F)CN(c3ccc(C#N)c4nccnc34)C2)C1=O (single isomer, unassigned) [Compound 227]
17 | 1000 to 10000 | CCN(CC)CCNCC1CCN(c2ccnc3cc(F)ccc23)CC1 [Compound 383, N,N-Diethyl-N′-[1-(7-fluoro-quinolin-4-yl)-piperidin-4-ylmethyl]-ethane-1,2-diamine]
18 | < 1000 | CN1CCCC1CNC(=O)C1CCN(c2ccc(C#N)c3ncccc23)CC1 (centres unmarked) [Compound 433, 1-(8-Cyano-quinolin-5-yl)-piperidine-4-carboxylic Acid (1-methyl-pyrrolidin-2-ylmethyl)-amide]
19 | < 1000 | C[C@H]1C[C@@H](NC(=O)C(O)C2CC2)CN(c2ccc(C(F)(F)F)c3ncccc23)C1 (single isomer, unassigned) [Compound 521]

More lines, now with the values behind:

Row | Compound | IC50 [nM]
20 | Cc1cc2c(N3C[C@@H](C)C[C@@H](NC(=O)CO)C3)ccnc2n1C [Compound 13, N-((3R,5S)-1-(1,2-dimethyl-1H-pyrrolo[2,3-b]pyridin-4-yl)-5-methylpiperidin-3-yl)-2-hydroxyacetamide] | > 10000
21 | N#Cc1ccc(N2CC(N)CC(F)(F)C2)c2nccnc12 (single isomer, unassigned) [Compound 75] | < 1000
22 | CN1CCC(NC2CC(C(F)(F)F)CN(c3ccc(C#N)c4nccnc34)C2)C1=O (single isomer, unassigned) [Compound 226] | < 1000
23 | C[C@@H]1CN(c2ccnc3nccnc23)C[C@H](CN2CCC(N3CCOCC3)CC2)O1 [Compound 60, (2R,6S)-2-methyl-6-((4-morpholinopiperidin-1-yl)methyl)-4-(pyrido[2,3-b]pyrazin-8-yl)morpholine] | 1000 to 10000
24 | COc1ccc(N2C[C@@H](C)C[C@@H](NC(=O)[C@@H](O)C(C)C)C2)c2cccnc12 [Compound 188, (2S)-2-hydroxy-N-[(3R,5S)-1-(8-methoxyquinolin-5-yl)-5-methylpiperidin-3-yl]-3-methylbutanamide] | < 1000
25 | CNCC(=O)N[C@@H]1C[C@H](C)CN(c2ccc(C#N)c3nccnc23)C1 [Compound 28, N-((3R,5S)-1-(8-cyanoquinoxalin-5-yl)-5-methylpiperidin-3-yl)-2-(methylamino)acetamide hydrochloride] | < 1000
26 | C[C@H]1C[C@@H](NC(=O)CC(F)(F)F)CN(c2ccnc3nccnc23)C1 [Compound 120, 3,3,3-trifluoro-N-[(3R,5S)-5-methyl-1-[pyrido[2,3-b]pyrazin-8-yl]piperidin-3-yl]propanamide] | > 10000
27 | CC(C)[C@@H](O)C(=O)N[C@@H]1C[C@H](C)CN(c2ccnc3nccnc23)C1 [Compound 23, (R)-2-hydroxy-3-methyl-N-((3R,5S)-5-methyl-1-(pyrido[2,3-b]pyrazin-8-yl)piperidin-3-yl)butanamide] | > 10000
28 | CC(C)[C@@H](N)C(=O)N[C@@H]1C[C@H](C)CN(c2ccc(C#N)c3nccnc23)C1 [Compound 102, (2R)-2-amino-N-[(3R,5S)-1-(8-cyanoquinoxalin-5-yl)-5-methylpiperidin-3-yl]-3-methylbutanamide] | < 1000
29 | FC(F)(F)CCN[C@H]1C[C@@H](C(F)(F)F)CN(c2ccnc3nccnc23)C1 (relative stereo) [Compound 96, cis-1-[pyrido[2,3-b]pyrazin-8-yl]-5-(trifluoromethyl)-N-(3,3,3-trifluoropropyl)piperidin-3-amine hydrochloride] | > 10000
30 | CN(C)CC(=O)N[C@H]1C[C@@H](C(F)(F)F)CN(c2ccc(C#N)c3nccnc23)C1 (relative stereo) [Compound 222, cis-N-[1-(8-cyanoquinoxalin-5-yl)-5-(trifluoromethyl)piperidin-3-yl]-2-(dimethylamino)acetamide] | < 1000
31 | CC(C)[C@@H](N)C(=O)N[C@@H]1C[C@H](C)CN(c2ccnc3nccnc23)C1 [Compound 104, (2R)-2-amino-3-methyl-N-[(3R,5S)-5-methyl-1-[pyrido[2,3-b]pyrazin-8-yl]piperidin-3-yl]butanamide] | > 10000
32 | CC(C)[C@H](O)C(=O)N[C@H]1C[C@@H](C(F)(F)F)CN(c2ccnc3nccnc23)C1 [Compound 90, (2S)-2-hydroxy-3-methyl-N-[(3S,5R)-1-[pyrido[2,3-b]pyrazin-8-yl]-5-(trifluoromethyl)piperidin-3-yl]butanamide hydrochloride] | > 10000
